Assay results reported in article PMC2359919, “Molecular targeting of retinoic acid metabolism in neuroblastoma: the role of the CYP26 inhibitor R116010 in vitro and in vivo” (British Journal of Cancer, 2007).
Where two headings read alike, the source gives them in different places.

Test: Pharmacokinetic analysis of RA in an SH-SY5Y xenograft model (retinoid concentrations in plasma, liver, tumour by LC/MS)
Assay type: in vivo, CD-1 nude mice
Settings: for % Total retinoids, tumour, 0.5 h / % Total retinoids, tumour, 2 h / % Total retinoids, tumour, 6 h / % Total retinoids, liver, 0.5 h / % Total retinoids, liver, 2 h / % Total retinoids, liver, 6 h / % Total retinoids, plasma, 0.5 h / % Total retinoids, plasma, 2 h / % Total retinoids, plasma, 6 h / concentration at 0.5 h / concentration at 2 h / concentration at 6 h: label = retinoid measured; for concentration at 0.5 h / concentration at 2 h / concentration at 6 h / Tmax: female, CD-1 nu/nu (athymic nude), mouse; for concentration at 0.5 h / concentration at 2 h / concentration at 6 h: po; for Tmax: 100 mg kg^−1 oral, sampled at 0.5, 2, 6 h, read-out: Time of peak plasma levels
Method: All in vivo experiments were approved by the relevant institutional animal welfare committees, and performed according to national law. Female athymic nude mice (CD-1 nu/nu, Charles River) used for antitumour studies were maintained and handled in isolators, under specific pathogen-free conditions, at 24°C with a 12 h light, 12 h dark cycle. Tumours were generated by implantation of SH-SY5Y cells subcutaneously (s.c.) into one flank of CD-1 nude mice (1 × 10^7 cells per animal).
Treatments began when the tumours were between 7 and 10 mm in length and breadth. Retinoids and R116010 were initially dissolved in DMSO before 10- or 20-fold dilutions in PBS, respectively. For pharmacokinetic studies, the animals were dosed with ATRA or 13cisRA (each 100 mg kg^−1) orally for 0.5, 2 and 6 h. For metabolism studies, animals were treated with R116010 orally at doses of 1.25 or 2.5 mg kg^−1 either immediately before the retinoid being studied, or up to three times (over 1–2 days) before dosing with the retinoid. At termination of experiments, animals were bled under terminal anaesthesia then killed by cervical dislocation. Plasma was immediately removed from the blood by centrifugation at 1000 g for 5 min and snap-frozen in liquid nitrogen in amber Eppendorfs. Tumour and liver samples were removed and snap-frozen, wrapped in foil, in liquid nitrogen.
Cell pellets obtained from retinoid incubations were re-suspended in 2 ml cell culture medium and disrupted by passing the samples several times through a syringe and hypodermic needle (25G × 1 inches, 0.5 mm × 25 mm; Terumo, Somerset, NJ, USA). Tumour and liver tissues were re-suspended in PBS and homogenised (T25 homogeniser, IKA Laboratories, Staufen, Germany). Retinoids were extracted as described previously ([Veal et al, 2002]; [Armstrong et al, 2005b]). Samples were reconstituted in 200 μl mobile phase A (n-hexane:dichloromethane:propan-2-ol, 400 : 1 : 0.27) and analysed by normal-phase HPLC as described previously ([Veal et al, 2002]). For LC/MS analysis, samples were reconstituted in 200 μl mobile phase A (50% acetonitrile, 50% (0.2%) acetic acid, v v^−1).
Resolution of retinoids was performed with a Luna C18(2) column (3 μm, 50 mm × 2 mm) using a Perkin Elmer LC (Beaconsfield, UK) system, consisting of a vacuum degasser, two series 200 pumps, a thermostatically controlled series 200 autosampler and a Waters 2487 UV absorbance detector. Retinoic isomers and metabolites were separated by gradient reversed-phase chromatography. An injection volume of 20 μl with a flow rate of 0.2 ml min^−1 was used with mobile phase A (50% acetonitrile, 50% (0.2%) acetic acid, v v^−1) and mobile phase B (acetonitrile, 0.1% acetic acid, v v^−1). Linear gradients were employed between the specified times as follows: 0, 100% A; 5 min, 100% A; 15 min, 100% B; 20 min, 100% B; 23 min, 100% A; 35 min, 100% A. An Applied Biosystems (Warrington, UK) API-2000 LC/MS/MS triple Q (quadrupole) mass spectrometer with electrospray ionisation source, controlled by Analyst software, was operated in single quadrupole negative mode for the detection of compounds.

[1] = after 13cisRA 100 mg kg^−1 oral, SH-SY5Y tumour
[2] = after 13cisRA 100 mg kg^−1 oral, liver
[3] = after 13cisRA 100 mg kg^−1 oral, plasma
[4] = after ATRA 100 mg kg^−1 oral, SH-SY5Y tumour
[5] = after ATRA 100 mg kg^−1 oral, liver
[6] = after ATRA 100 mg kg^−1 oral, plasma
[7] = liver, 100 mg kg^−1, after 13cisRA 100 mg kg^−1 oral, liver, read-out: Liver concentration, 0.5 h
[8] = liver, 100 mg kg^−1, after 13cisRA 100 mg kg^−1 oral, liver, read-out: Liver concentration, 2 h
[9] = liver, 100 mg kg^−1, after 13cisRA 100 mg kg^−1 oral, liver, read-out: Liver concentration, 6 h
[10] = liver, 100 mg kg^−1, after ATRA 100 mg kg^−1 oral, liver, read-out: Liver concentration, 0.5 h
[11] = liver, 100 mg kg^−1, after ATRA 100 mg kg^−1 oral, liver, read-out: Liver concentration, 2 h
[12] = liver, 100 mg kg^−1, after ATRA 100 mg kg^−1 oral, liver, read-out: Liver concentration, 6 h
[13] = plasma, 100 mg kg^−1, after 13cisRA 100 mg kg^−1 oral, plasma, read-out: Plasma concentration, 0.5 h
[14] = plasma, 100 mg kg^−1, after 13cisRA 100 mg kg^−1 oral, plasma, read-out: Plasma concentration, 2 h
[15] = plasma, 100 mg kg^−1, after 13cisRA 100 mg kg^−1 oral, plasma, read-out: Plasma concentration, 6 h
[16] = plasma, 100 mg kg^−1, after ATRA 100 mg kg^−1 oral, plasma, read-out: Plasma concentration, 0.5 h
[17] = plasma, 100 mg kg^−1, after ATRA 100 mg kg^−1 oral, plasma, read-out: Plasma concentration, 2 h
[18] = plasma, 100 mg kg^−1, after ATRA 100 mg kg^−1 oral, plasma, read-out: Plasma concentration, 6 h
[19] = tumour (SH-SY5Y xenograft), 100 mg kg^−1, after 13cisRA 100 mg kg^−1 oral, SH-SY5Y tumour, read-out: Tumour concentration, 0.5 h
[20] = tumour (SH-SY5Y xenograft), 100 mg kg^−1, after 13cisRA 100 mg kg^−1 oral, SH-SY5Y tumour, read-out: Tumour concentration, 2 h
[21] = tumour (SH-SY5Y xenograft), 100 mg kg^−1, after 13cisRA 100 mg kg^−1 oral, SH-SY5Y tumour, read-out: Tumour concentration, 6 h
[22] = tumour (SH-SY5Y xenograft), 100 mg kg^−1, after ATRA 100 mg kg^−1 oral, SH-SY5Y tumour, read-out: Tumour concentration, 0.5 h
[23] = tumour (SH-SY5Y xenograft), 100 mg kg^−1, after ATRA 100 mg kg^−1 oral, SH-SY5Y tumour, read-out: Tumour concentration, 2 h
[24] = tumour (SH-SY5Y xenograft), 100 mg kg^−1, after ATRA 100 mg kg^−1 oral, SH-SY5Y tumour, read-out: Tumour concentration, 6 h

Row | Structure (SMILES) | % Total retinoids, tumour, 0.5 h [1] | % Total retinoids, tumour, 2 h [1] | % Total retinoids, tumour, 6 h [1] | % Total retinoids, liver, 0.5 h [2] | % Total retinoids, liver, 2 h [2] | % Total retinoids, liver, 6 h [2] | % Total retinoids, plasma, 0.5 h [3] | % Total retinoids, plasma, 2 h [3] | % Total retinoids, plasma, 6 h [3] | % Total retinoids, tumour, 0.5 h [4] | % Total retinoids, tumour, 2 h [4] | % Total retinoids, tumour, 6 h [4] | % Total retinoids, liver, 0.5 h [5] | % Total retinoids, liver, 2 h [5] | % Total retinoids, liver, 6 h [5] | % Total retinoids, plasma, 0.5 h [6] | % Total retinoids, plasma, 2 h [6] | % Total retinoids, plasma, 6 h [6] | concentration at 0.5 h [7] | concentration at 2 h [8] | further results
1 | CC1=C(/C=C/C(C)=C/C=C/C(C)=C/C(=O)O)C(C)(C)CCC1 [ATRA, all-trans-retinoic acid] | 7% | 14% | 16% | 2% | 1% | <1% | 5% | 3% | 1% | 90% | 95% | 80% | 77% | 81% | 46% | 91% | 88% | 70% | 120 ± 80 ng/g | 50 ± 50 ng/g | Plasma % of total retinoids at all time points (after 13cisRA 100 mg kg^−1, plasma, 0.5, 2 and 6 h): < 10%; Intratumoral % of total retinoids at all time points (after ATRA 100 mg kg^−1, tumour, 0.5, 2 and 6 h): ≥ 80%; concentration at 6 h [9]: 20 ± 20 ng/g; concentration at 0.5 h [10]: 3070 ± 1950 ng/g; concentration at 2 h [11]: 6920 ± 1130 ng/g; concentration at 6 h [12]: 2400 ± 360 ng/g; concentration at 0.5 h [13]: 0.69 ± 0.49 µM; concentration at 2 h [14]: 0.57 ± 0.57 µM; concentration at 6 h [15]: 0.08 ± 0.08 µM; concentration at 0.5 h [16]: 13 ± 10.4 µM; concentration at 2 h [17]: 24.4 ± 1.94 µM; concentration at 6 h [18]: 12.8 ± 4.61 µM; Tmax (plasma): 2 h; concentration at 0.5 h [19]: 150 ± 90 ng/g; concentration at 2 h [20]: 370 ± 160 ng/g; concentration at 6 h [21]: 90 ± 20 ng/g; concentration at 0.5 h [22]: 2590 ± 2280 ng/g; concentration at 2 h [23]: 9410 ± 2230 ng/g; concentration at 6 h [24]: 3780 ± 590 ng/g
2 | CC1=C(/C=C/C(C)=C/C=C/C(C)=C\C(=O)O)C(C)(C)CCC1 [13cisRA, 13-cis-retinoic acid] | 90% | 81% | 49% | 75% | 58% | 18% | 93% | 93% | 78% | 2% | 3% | 3% | 11% | 5% | 5% | 5% | 6% | 8% | 3770 ± 1050 ng/g | 2330 ± 110 ng/g | Plasma % of total retinoids at all time points (after ATRA 100 mg kg^−1, plasma, 0.5, 2 and 6 h): < 10%; concentration at 6 h [9]: 980 ± 120 ng/g; concentration at 0.5 h [10]: 420 ± 300 ng/g; concentration at 2 h [11]: 400 ± 80 ng/g; concentration at 6 h [12]: 250 ± 60 ng/g; concentration at 0.5 h [13]: 14.2 ± 4.71 µM; concentration at 2 h [14]: 19.1 ± 3.26 µM; concentration at 6 h [15]: 4.69 ± 0.52 µM; concentration at 0.5 h [16]: 0.67 ± 0.55 µM; concentration at 2 h [17]: 1.55 ± 0.33 µM; concentration at 6 h [18]: 1.53 ± 0.66 µM; Tmax (plasma): 2 h; concentration at 0.5 h [19]: 2000 ± 670 ng/g; concentration at 2 h [20]: 2120 ± 570 ng/g; concentration at 6 h [21]: 280 ± 40 ng/g; concentration at 0.5 h [22]: 70 ± 70 ng/g; concentration at 2 h [23]: 280 ± 70 ng/g; concentration at 6 h [24]: 150 ± 30 ng/g
